Values quoted from earlier work as cited in patent US20170173097A1, “COMPOSITIONS FOR ENHANCING DETOXIFICATION AND USES THEREOF” (Specialty Nutrition Group, Inc., priority 2014, published 2017).
Read-outs that look alike come from different tables or passages of the source.

System: beta-glucuronidase

Question: For `O=C([O-])[C@@H](O)[C@@H](O)[C@H](O)[C@@H](O)C(=O)[O-].[Ca+2]` [calcium D-glucarate], which inhibition of beta-glucuronidase (in the blood) is on record?
Answer: The inhibition of beta-glucuronidase was 57%.

Question: And the inhibition of beta-glucuronidase (in the intestines)?
Answer: Its inhibition of beta-glucuronidase is 39%.

Question: And the inhibition of beta-glucuronidase (in the liver)?
Answer: The inhibition of beta-glucuronidase was 44%.

Question: What about the inhibition of beta-glucuronidase (in the lungs) of the same compound?
Answer: The inhibition of beta-glucuronidase was 37%.
